Activity calls are given as the source filed them. The rule behind the calls is not given here.
Experiments:
Format in all cases: functional
[1] = Growth inhibition of human Hs 578T cells assessed as cell growth at 10^-4 M by sulforhodamine B assay; conditions: read-out: Activity
CCRF-CEM = test: Growth inhibition of human CCRF-CEM cells by sulforhodamine B assay
Hs-578T = test: Growth inhibition of human Hs 578T cells assessed as growth inhibition at 10 uM by sulforhodamine B assay
HT-29 = test: Growth inhibition of human HT-29 cells assessed as cell growth at 10^-8 M by sulforhodamine B assay; conditions: read-out: Activity
TK-10 = test: Growth inhibition of human TK10 cells assessed as cell growth at 10^-4 M by sulforhodamine B assay; conditions: read-out: Activity
[2] = Growth inhibition of human Hs 578T cells assessed as cell growth at 10^-8 M by sulforhodamine B assay; conditions: read-out: Activity
HCT-15 = test: Growth inhibition of human HCT15 cells assessed as cell growth at 10^-4 M by sulforhodamine B assay; conditions: read-out: Activity
MOLT-4 = test: Growth inhibition of human MOLT4 cells assessed as cell growth at 10^-4 M by sulforhodamine B assay; conditions: read-out: Activity
SN12C = test: Growth inhibition of human SN12C cells by sulforhodamine B assay
LOX IMVI = test: Growth inhibition of human LOXIMVI cells assessed as cell growth at 10^-4 M by sulforhodamine B assay; conditions: read-out: Activity
NCI-H322M = test: Growth inhibition of human NCI-H322M cells by sulforhodamine B assay
MDA-MB-231 = test: Growth inhibition of human MDA-MB-231 cells assessed as cell growth at 10^-6 M by sulforhodamine B assay; conditions: read-out: Activity
SK-MEL-5 [3] = test: Growth inhibition of human SK-MEL-5 cells assessed as cell growth at 10^-6 M by sulforhodamine B assay; conditions: read-out: Activity
BT-549 [4] = test: Growth inhibition of human BT549 cells assessed as cell growth at 10^-8 M by sulforhodamine B assay; conditions: read-out: Activity
RPMI-8226 = test: Growth inhibition of human RPMI8226 cells assessed as cell growth at 10^-4 M by sulforhodamine B assay; conditions: read-out: Activity
UACC-62 = test: Growth inhibition of human UACC62 cells assessed as cell growth at 10^-6 M by sulforhodamine B assay; conditions: read-out: Activity
SW-620 = test: Growth inhibition of human SW620 cells assessed as cell growth at 10^-7 M by sulforhodamine B assay; conditions: read-out: Activity
A549 = test: Growth inhibition of human A549/ATCC cells assessed as cell growth at 10^-7 M by sulforhodamine B assay; conditions: read-out: Activity
PC-3 = test: Growth inhibition of human PC3 cells assessed as cell growth at 10^-4 M by sulforhodamine B assay; conditions: read-out: Activity
UO-31 = test: Growth inhibition of human UO31 cells by sulforhodamine B assay
BT-549 [5] = test: Growth inhibition of human BT549 cells assessed as cell growth at 10^-6 M by sulforhodamine B assay; conditions: read-out: Activity
SR = test: Growth inhibition of human SR cells assessed as cell growth at 10^-6 M by sulforhodamine B assay; conditions: read-out: Activity
HOP-62 = test: Growth inhibition of human HOP62 cells assessed as cell growth at 10^-7 M by sulforhodamine B assay; conditions: read-out: Activity
SF-295 = test: Growth inhibition of human SF295 cells assessed as cell growth at 10^-7 M by sulforhodamine B assay; conditions: read-out: Activity
SNB-19 = test: Growth inhibition of human SNB19 cells assessed as cell growth at 10^-6 M by sulforhodamine B assay; conditions: read-out: Activity
T47D = test: Growth inhibition of human T47D cells by sulforhodamine B assay
MCF7 = test: Growth inhibition of human MCF7 cells assessed as cell growth at 10^-4 M by sulforhodamine B assay; conditions: read-out: Activity
SK-MEL-5 [6] = test: Growth inhibition of human SK-MEL-5 cells assessed as cell growth at 10^-8 M by sulforhodamine B assay; conditions: read-out: Activity
NCI-H23 = test: Growth inhibition of human NCI-H23 cells assessed as cell growth at 10^-7 M by sulforhodamine B assay; conditions: read-out: Activity
BT-549 [7] = test: Growth inhibition of human BT549 cells by sulforhodamine B assay
U-251 = test: Growth inhibition of human U251 cells assessed as cell growth at 10^-8 M by sulforhodamine B assay; conditions: read-out: Activity
DU-145 = test: Growth inhibition of human DU145 cells assessed as cell growth at 10^-4 M by sulforhodamine B assay; conditions: read-out: Activity
[8] = Growth inhibition of human Hs 578T cells by sulforhodamine B assay
[9] = read-out: LC50 (the source's name)
[10] = read-out: pLC50 (the source's name) (converted)

C/C=C(/C)C(=O)O[C@@H]1CC(C)(C)C[C@H]2C3=CC[C@@H]4[C@@]5(C)CC[C@H](O)C(C)(C)[C@@H]5CC[C@@]4(C)[C@]3(C)CC[C@@]12C(=O)O [Reduced Lantadene A]
growth at 100 µM [1]: -38% | GI50 (CCRF-CEM; read-out: GI50): 2.31 µM | CC50 (CCRF-CEM; [9]): > 100 µM | TGI (CCRF-CEM; read-out: TGI): 6.52 µM | GI50 (CCRF-CEM; read-out: pGI50 (converted)): 2.29 µM | CC50 (CCRF-CEM; [10]): > 100 µM | TGI (CCRF-CEM; read-out: pTGI (converted)): 6.46 µM | growth inhibition (GI) (Hs-578T): Active | growth at 0.01 µM (HT-29): 104% | growth at 100 µM (TK-10): -69% | growth at 0.01 µM [2]: 94% | growth at 100 µM (HCT-15): -64% | growth at 100 µM (MOLT-4): -36% | GI50 (SN12C; read-out: GI50): 1.63 µM | CC50 (SN12C; [9]): 7.22 µM | TGI (SN12C; read-out: TGI): 3.43 µM | GI50 (SN12C; read-out: pGI50 (converted)): 1.62 µM | CC50 (SN12C; [10]): 7.24 µM | TGI (SN12C; read-out: pTGI (converted)): 3.47 µM | growth at 100 µM (LOX IMVI): -62% | GI50 (NCI-H322M; read-out: GI50): 1.78 µM | LC50 (50% lethal concentration) (NCI-H322M; read-out: LC50): 6.74 µM | TGI (NCI-H322M; read-out: TGI): 3.46 µM | GI50 (NCI-H322M; read-out: pGI50 (converted)): 1.78 µM | LC50 (50% lethal concentration) (NCI-H322M; read-out: pLC50 (converted)): 6.76 µM | TGI (NCI-H322M; read-out: pTGI (converted)): 3.47 µM | growth at 1 µM (MDA-MB-231): 89% | growth at 1 µM (SK-MEL-5 [3]): 83% | growth at 0.01 µM (BT-549 [4]): 99% | growth at 100 µM (RPMI-8226): -15% | growth at 1 µM (UACC-62): 78% | growth at 0.1 µM (SW-620): 95% | growth at 0.1 µM (A549): 90% | growth at 100 µM (PC-3): -73% | GI50 (UO-31; read-out: GI50): 1.64 µM | CC50 (UO-31; [9]): 5.91 µM | TGI (UO-31; read-out: TGI): 3.12 µM | GI50 (UO-31; read-out: pGI50 (converted)): 1.66 µM | CC50 (UO-31; [10]): 5.89 µM | TGI (UO-31; read-out: pTGI (converted)): 3.09 µM | growth at 1 µM (BT-549 [5]): 95% | growth at 1 µM (SR): 89% | growth at 0.1 µM (HOP-62): 95% | growth at 0.1 µM (SF-295): 90% | growth at 1 µM (SNB-19): 85% | GI50 (T47D; read-out: GI50): 11.8 µM | CC50 (T47D; [9]): > 100 µM | TGI (T47D; read-out: TGI): 41.1 µM | GI50 (T47D; read-out: pGI50 (converted)): 11.7 µM | CC50 (T47D; [10]): > 100 µM | TGI (T47D; read-out: pTGI (converted)): 40.7 µM | growth at 100 µM (MCF7): -39% | growth at 0.01 µM (SK-MEL-5 [6]): 95% | growth at 0.1 µM (NCI-H23): 99% | GI50 (BT-549 [7]; read-out: GI50): 1.94 µM | CC50 (BT-549 [7]; [9]): 8.53 µM | TGI (BT-549 [7]; read-out: TGI): 4.06 µM | GI50 (BT-549 [7]; read-out: pGI50 (converted)): 1.95 µM | CC50 (BT-549 [7]; [10]): 8.51 µM | TGI (BT-549 [7]; read-out: pTGI (converted)): 4.07 µM | growth at 0.01 µM (U-251): 96% | growth at 100 µM (DU-145): -46% | GI50 ([8]; read-out: GI50): 2.13 µM | CC50 [8, 9]: > 100 µM | TGI ([8]; read-out: TGI): 5.21 µM | GI50 ([8]; read-out: pGI50 (converted)): 2.14 µM | CC50 [8, 10]: > 100 µM | TGI ([8]; read-out: pTGI (converted)): 5.25 µM

CC(C)=CC(=O)O[C@@H]1CC(C)(C)C[C@H]2C3=CC[C@@H]4[C@@]5(C)CCC(=O)C(C)(C)[C@@H]5CC[C@@]4(C)[C@]3(C)CC[C@@]12C(=O)O
growth at 100 µM [1]: -10% | GI50 (CCRF-CEM; read-out: GI50): 2.14 µM | CC50 (CCRF-CEM; [9]): > 100 µM | TGI (CCRF-CEM; read-out: TGI): 22.1 µM | GI50 (CCRF-CEM; read-out: pGI50 (converted)): 2.14 µM | CC50 (CCRF-CEM; [10]): > 100 µM | TGI (CCRF-CEM; read-out: pTGI (converted)): 22.4 µM | growth at 0.01 µM (HT-29): 101% | growth at 100 µM (TK-10): -18% | growth at 0.01 µM [2]: 96% | growth at 100 µM (HCT-15): -34% | growth at 100 µM (MOLT-4): -21% | GI50 (SN12C; read-out: GI50): 3.12 µM | CC50 (SN12C; [9]): > 100 µM | TGI (SN12C; read-out: TGI): 21.8 µM | GI50 (SN12C; read-out: pGI50 (converted)): 3.09 µM | CC50 (SN12C; [10]): > 100 µM | TGI (SN12C; read-out: pTGI (converted)): 21.9 µM | growth at 100 µM (LOX IMVI): -47% | GI50 (NCI-H322M; read-out: GI50): 2.87 µM | LC50 (50% lethal concentration) (NCI-H322M; read-out: LC50): > 100 µM | TGI (NCI-H322M; read-out: TGI): 19.9 µM | GI50 (NCI-H322M; read-out: pGI50 (converted)): 2.88 µM | LC50 (50% lethal concentration) (NCI-H322M; read-out: pLC50 (converted)): > 100 µM | TGI (NCI-H322M; read-out: pTGI (converted)): 20 µM | growth at 1 µM (MDA-MB-231): 76% | growth at 1 µM (SK-MEL-5 [3]): 60% | growth at 0.01 µM (BT-549 [4]): 114% | growth at 100 µM (RPMI-8226): -19% | growth at 1 µM (UACC-62): 73% | growth at 0.1 µM (SW-620): 97% | growth at 0.1 µM (A549): 88% | growth at 100 µM (PC-3): -1% | GI50 (UO-31; read-out: GI50): 2.95 µM | CC50 (UO-31; [9]): > 100 µM | TGI (UO-31; read-out: TGI): 32.2 µM | GI50 (UO-31; read-out: pGI50 (converted)): 2.95 µM | CC50 (UO-31; [10]): > 100 µM | TGI (UO-31; read-out: pTGI (converted)): 32.4 µM | growth at 1 µM (BT-549 [5]): 90% | growth at 1 µM (SR): 95% | growth at 0.1 µM (HOP-62): 97% | growth at 0.1 µM (SF-295): 83% | growth at 1 µM (SNB-19): 87% | GI50 (T47D; read-out: GI50): 5.08 µM | CC50 (T47D; [9]): > 100 µM | TGI (T47D; read-out: TGI): > 100 µM | GI50 (T47D; read-out: pGI50 (converted)): 5.13 µM | CC50 (T47D; [10]): > 100 µM | TGI (T47D; read-out: pTGI (converted)): > 100 µM | growth at 100 µM (MCF7): 2% | growth at 0.01 µM (SK-MEL-5 [6]): 99% | growth at 0.1 µM (NCI-H23): 90% | GI50 (BT-549 [7]; read-out: GI50): 4.79 µM | CC50 (BT-549 [7]; [9]): > 100 µM | TGI (BT-549 [7]; read-out: TGI): 25 µM | GI50 (BT-549 [7]; read-out: pGI50 (converted)): 4.79 µM | CC50 (BT-549 [7]; [10]): > 100 µM | TGI (BT-549 [7]; read-out: pTGI (converted)): 25.1 µM | growth at 0.01 µM (U-251): 92% | growth at 100 µM (DU-145): -51% | GI50 ([8]; read-out: GI50): 4.16 µM | CC50 [8, 9]: > 100 µM | TGI ([8]; read-out: TGI): 53.6 µM | GI50 ([8]; read-out: pGI50 (converted)): 4.17 µM | CC50 [8, 10]: > 100 µM | TGI ([8]; read-out: pTGI (converted)): 53.7 µM

From ChEMBL document CHEMBL2413072, “Synthesis and in vitro anticancer studies of novel C-2 arylidene congeners of lantadenes” (2013)
